The record followed here is patent publication US20220411439A1, “POLYMORPHS OF A MACROCYCLIC KINASE INHIBITOR” (TURNING POINT THERAPEUTICS, INC., priority 2019, published 2022).

The IC50 is the concentration that inhibits the measured activity by half.

The subject of one assay is KG-1. Put plainly: Cell proliferation assay (CellTiter-Glo). The class given is cell-based. The conditions noted are these: Homo sapiens, anti-cell proliferation, 72 hours. Here is the method:
(§1) Human medulla thyroid carcinoma cell line TT (containing RET M918T mutation) and acute myelogenous cell line KG-1 were purchased from ATCC. Human colon cancer cell line KM12 (containing TPM3-TRKA) was obtained from NCI. Two thousand cells per well were seeded in 384 well white plate for 24 hrs, and then treated with compounds for 72 hours (37° C., 5% CO2). Cell proliferation was measured using CellTiter-Glo luciferase-based ATP detection assay (Promega) following the manufactures's protocol. IC50 determinations were performed using GraphPad Prism software (GraphPad, Inc., San Diego, Calif.).
On the technique in general: In ATP-based viability assays light output follows the ATP content of the culture.

In a further assay the test system is TT cell (RET M918T). Put plainly: Cell proliferation assay (CellTiter-Glo). The class given is cell-based. The note with it: Homo sapiens, anti-cell proliferation, 72 hours. Here is the method: as §1
The subject of a further assay is KM12 cell (TPM3-TRKA). Put plainly: Cell proliferation assay (CellTiter-Glo). It is filed as cell-based. The note with it: Homo sapiens, anti-cell proliferation, 72 hours. Here is the method:
as §1

For another assay, the target named is T1, Ba/F3 KIF5B-RET G810C (Homo sapiens, UniProt P07949, G810C).
T1 construct: KIF5B fragment (fusion partner); expressed in transfected cells; host or cells: Ba/F3 cells, lentiviral transduction (pCDH-CMV-MCS-EF1-Puro); the other entry of the earlier key: KIF5B (P33176, Kinesin-1 heavy chain)
T1 sequence (P07949 713-1063 G810C limits assumed): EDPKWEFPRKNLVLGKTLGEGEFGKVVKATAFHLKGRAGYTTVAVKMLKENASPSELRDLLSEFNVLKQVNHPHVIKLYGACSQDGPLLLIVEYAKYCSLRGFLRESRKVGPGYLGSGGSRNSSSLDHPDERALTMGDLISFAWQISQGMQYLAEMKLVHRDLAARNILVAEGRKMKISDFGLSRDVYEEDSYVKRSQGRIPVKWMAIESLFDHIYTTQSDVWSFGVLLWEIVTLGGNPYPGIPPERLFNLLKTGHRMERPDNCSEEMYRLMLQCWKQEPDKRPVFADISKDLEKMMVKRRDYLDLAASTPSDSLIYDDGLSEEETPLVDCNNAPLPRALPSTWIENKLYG
Put plainly: RET-G810C autophosphorylation (Y905) by immunoblotting in Ba/F3 engineered cells. It is filed as cell-based. The conditions noted are these: 4 hours incubation, read-out: IC50, RET-G810C phosphorylation at residue Y905. For orientation: A western blot detects proteins with antibodies after separation by electrophoresis.

The target of a further assay is T2, RET (Y806H) (Homo sapiens, UniProt P07949, Y806H).
T2 construct: purchased Reaction Biology Corporation (contract assay)
T2 sequence (P07949 29-1114 Y806H): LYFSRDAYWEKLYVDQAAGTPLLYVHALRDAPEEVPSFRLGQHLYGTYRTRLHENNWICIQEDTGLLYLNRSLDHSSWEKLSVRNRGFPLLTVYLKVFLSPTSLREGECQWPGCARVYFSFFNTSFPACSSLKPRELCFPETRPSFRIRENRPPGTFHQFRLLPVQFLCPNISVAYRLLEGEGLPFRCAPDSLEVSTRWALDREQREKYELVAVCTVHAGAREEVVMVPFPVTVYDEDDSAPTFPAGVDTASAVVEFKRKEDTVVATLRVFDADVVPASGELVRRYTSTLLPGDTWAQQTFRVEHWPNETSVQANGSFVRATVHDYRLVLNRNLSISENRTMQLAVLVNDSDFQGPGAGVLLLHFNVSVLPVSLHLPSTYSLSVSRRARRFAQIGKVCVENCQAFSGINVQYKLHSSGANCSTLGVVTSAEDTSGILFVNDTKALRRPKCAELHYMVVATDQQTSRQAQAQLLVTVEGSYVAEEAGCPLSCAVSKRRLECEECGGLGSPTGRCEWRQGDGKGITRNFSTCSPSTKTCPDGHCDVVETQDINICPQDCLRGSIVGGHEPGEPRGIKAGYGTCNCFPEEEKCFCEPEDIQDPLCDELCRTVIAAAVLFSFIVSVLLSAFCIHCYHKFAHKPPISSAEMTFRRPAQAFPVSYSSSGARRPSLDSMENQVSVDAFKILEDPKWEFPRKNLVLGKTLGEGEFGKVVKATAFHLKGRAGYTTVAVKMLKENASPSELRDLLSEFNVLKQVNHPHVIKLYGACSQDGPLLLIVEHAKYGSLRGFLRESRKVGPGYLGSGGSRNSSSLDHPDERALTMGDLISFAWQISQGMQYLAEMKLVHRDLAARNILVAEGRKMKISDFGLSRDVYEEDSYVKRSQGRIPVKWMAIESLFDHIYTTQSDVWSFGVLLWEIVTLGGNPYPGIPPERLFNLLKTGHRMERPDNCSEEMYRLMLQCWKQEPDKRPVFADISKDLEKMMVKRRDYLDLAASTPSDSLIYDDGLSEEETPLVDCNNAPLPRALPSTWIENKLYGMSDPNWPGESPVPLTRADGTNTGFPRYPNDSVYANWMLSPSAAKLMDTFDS
Put plainly: Biochemical kinase assay. The conditions noted are these: 10 μM ATP. Here is the method:
(§2) The biochemical kinase assay was performed at Reaction Biology Corporation (www.reactionbiology.com, Malvern, Pa.) following the procedures described in the reference (Anastassiadis T, et al Nat Biotechnol. 2011, 29, 1039). Specific kinase/substrate pairs along with required cofactors were prepared in reaction buffer; 20 mM Hepes pH 7.5, 10 mM MgCl2, 1 mM EGTA, 0.02% Brij35, 0.02 mg/ml BSA, 0.1 mM Na3VO4, 2 mM DTT, 1% DMSO. Compounds were delivered into the reaction, followed ˜20 minutes later by addition of a mixture of ATP (Sigma, St. Louis Mo.) and ^33P ATP (Perkin Elmer, Waltham Mass.) to a final concentration of 10 μM. Reactions were carried out at room temperature for 120 min, followed by spotting of the reactions onto P81 ion exchange filter paper (Whatman Inc., Piscataway, N.J.). Unbound phosphate was removed by extensive washing of filters in 0.75% phosphoric acid. […] IC50 values and curve fits were obtained using Prism (GraphPad Software).

The target of another assay is T3, RET (R813Q) (Homo sapiens, UniProt P07949, R813Q).
T3 construct: purchased Reaction Biology Corporation (contract assay)
T3 sequence (P07949 29-1114 R813Q): as the sequence (P07949 29-1114 Y806H) above, with H778Y, R785Q counted along it
Put plainly: Biochemical kinase assay. The note with it: 10 μM ATP. As to the method: as §2

The target in the next assay is T4, RET (V778I) (Homo sapiens, UniProt P07949, V778I).
T4 construct: purchased Reaction Biology Corporation (contract assay)
T4 sequence (P07949 29-1114 V778I): as the sequence (P07949 29-1114 Y806H) above, with V750I, H778Y counted along it
Put plainly: Biochemical kinase assay. The conditions noted are these: 10 μM ATP. Here is the method: as §2

A further assay has as its target T5, RET (M918T) (Homo sapiens, UniProt P07949, M918T).
T5 construct: purchased Reaction Biology Corporation (contract assay)
Put plainly: Biochemical kinase assay. The conditions noted are these: 10 μM ATP. Here is the method: as §2

The target of a further assay is T6, RET (S904A) (Homo sapiens, UniProt P07949, S904A).
T6 construct: purchased Reaction Biology Corporation (contract assay)
T6 sequence (P07949 29-1114 S904A): as the sequence (P07949 29-1114 Y806H) above, with H778Y, S876A counted along it
Put plainly: Biochemical kinase assay. The note with it: 10 μM ATP. As to the method:
as §2

The target of another assay is T7, RET (V804L) (Homo sapiens, UniProt P07949, V804L).
T7 construct: purchased Reaction Biology Corporation (contract assay)
T7 sequence (P07949 29-1114 V804L): as the sequence (P07949 29-1114 Y806H) above, with V776L, H778Y counted along it
Put plainly: Biochemical kinase assay. The conditions noted are these: 10 μM ATP. As to the method:
as §2

Another assay deals with T8, RET (S904F) (Homo sapiens, UniProt P07949, S904F).
T8 construct: purchased Reaction Biology Corporation (contract assay)
T8 sequence (P07949 29-1114 S904F): as the sequence (P07949 29-1114 Y806H) above, with H778Y, S876F counted along it
Put plainly: Biochemical kinase assay. The conditions noted are these: 10 μM ATP. As to the method: as §2

The target in the next assay is T9, RET-CCDC6 (PTC1) (Homo sapiens, UniProt P07949).
T9 construct: CCDC6 fragment (fusion partner); purchased Reaction Biology Corporation (contract assay); the other entry of the earlier key: CCDC6 (Q16204, Coiled-coil domain-containing protein 6)
T9 sequence (P07949 with tags, fused parts or gaps): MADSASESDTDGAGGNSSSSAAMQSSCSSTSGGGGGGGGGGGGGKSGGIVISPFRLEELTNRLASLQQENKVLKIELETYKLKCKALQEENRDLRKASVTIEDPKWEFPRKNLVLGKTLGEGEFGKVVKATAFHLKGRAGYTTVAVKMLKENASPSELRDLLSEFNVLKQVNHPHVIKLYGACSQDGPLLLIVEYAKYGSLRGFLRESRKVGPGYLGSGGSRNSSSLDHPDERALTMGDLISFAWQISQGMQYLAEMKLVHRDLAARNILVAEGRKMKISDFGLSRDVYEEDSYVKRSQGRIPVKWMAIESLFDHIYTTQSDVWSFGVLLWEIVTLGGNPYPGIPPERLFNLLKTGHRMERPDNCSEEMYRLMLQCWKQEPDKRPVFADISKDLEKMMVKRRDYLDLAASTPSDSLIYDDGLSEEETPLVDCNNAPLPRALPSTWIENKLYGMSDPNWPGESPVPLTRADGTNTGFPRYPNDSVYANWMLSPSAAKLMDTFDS
Put plainly: Biochemical kinase assay. The conditions noted are these: 10 μM ATP. As to the method: as §2

The target of the next assay is T10, RET (G691S) (Homo sapiens, UniProt P07949, G691S).
T10 construct: purchased Reaction Biology Corporation (contract assay)
T10 sequence (P07949 29-1114 G691S): as the sequence (P07949 29-1114 Y806H) above, with G663S, H778Y counted along it
Put plainly: Biochemical kinase assay. The conditions noted are these: 10 μM ATP. Here is the method:
as §2

A further assay concerns the target T11, RET (V804M) (Homo sapiens, UniProt P07949, V804M).
T11 construct: purchased Reaction Biology Corporation (contract assay)
Put plainly: Biochemical kinase assay. The conditions noted are these: 10 μM ATP. Here is the method: as §2

In the next assay the target is T12, RET (L790F) (Homo sapiens, UniProt P07949, L790F).
T12 construct: purchased Reaction Biology Corporation (contract assay)
T12 sequence (P07949 29-1114 L790F): as the sequence (P07949 29-1114 Y806H) above, with L762F, H778Y counted along it
Put plainly: Biochemical kinase assay. The conditions noted are these: 10 μM ATP. Here is the method: as §2

A further assay deals with T13, RET (E762Q) (Homo sapiens, UniProt P07949, E762Q).
T13 construct: purchased Reaction Biology Corporation (contract assay)
T13 sequence (P07949 29-1114 E762Q): as the sequence (P07949 29-1114 Y806H) above, with E734Q, H778Y counted along it
Put plainly: Biochemical kinase assay. The note with it: 10 μM ATP. As to the method:
as §2

A further assay addresses T14, RET (A883F) (Homo sapiens, UniProt P07949, A883F).
T14 construct: purchased Reaction Biology Corporation (contract assay)
Put plainly: Biochemical kinase assay. The conditions noted are these: 10 μM ATP. Here is the method:
as §2

The target of the next assay is T15, RET (Y791F) (Homo sapiens, UniProt P07949, Y791F).
T15 construct: purchased Reaction Biology Corporation (contract assay)
T15 sequence (P07949 29-1114 Y791F): as the sequence (P07949 29-1114 Y806H) above, with Y763F, H778Y counted along it
Put plainly: Biochemical kinase assay. The conditions noted are these: 10 μM ATP. As to the method: as §2

Another assay addresses T16, RET (R749T) (Homo sapiens, UniProt P07949, R749T).
T16 construct: purchased Reaction Biology Corporation (contract assay)
Put plainly: Biochemical kinase assay. The note with it: 10 μM ATP. Here is the method:
as §2

T16 sequence (P07949 29-1114 R749T): as the sequence (P07949 29-1114 Y806H) above, with R721T, H778Y counted along it
T5 sequence (P07949 29-1114 M918T): as the sequence (P07949 29-1114 Y806H) above, with H778Y, M890T counted along it
T14 sequence (P07949 29-1114 A883F): as the sequence (P07949 29-1114 Y806H) above, with H778Y, A855F counted along it
T11 sequence (P07949 29-1114 V804M): as the sequence (P07949 29-1114 Y806H) above, with V776M, H778Y counted along it

For the compound `C[C@H]1CNC(=O)c2cnn3cc4c(nc23)N(Cc2cc(F)cnc2O1)[C@@H]1CCC[C@@H]1O4` [Compound I, (3aR,11S,20aS)-7-fluoro-11-methyl-2,3,3a,12,13,20a-hexahydro-1H,5H-17,19-(metheno)cyclopenta[5,6][1,4]oxazino[3,4-i]pyrazolo[4,3-f]pyrido[3,2-l][1,4,8,10]oxatriazacyclotridecin-14(11H)-one], the IC50 is 131 nM with KG-1; less than 0.5 nM with TT cell (RET M918T); 3 nM with KM12 cell (TPM3-TRKA); 1 to 3 nM at Ba/F3 KIF5B-RET G810C; 2.6 nM against RET (Y806H); 1.7 nM against RET (R813Q). In addition, the IC50 against RET (V778I) is 0.1 nM; against RET (M918T), 0.3 nM; on RET (S904A) it was 0.9 nM; against RET (V804L), 6.2 nM; on RET (S904F) it was 0.5 nM; at RET-CCDC6 (PTC1), 0.5 nM. For the same compound, the IC50 against RET (G691S) is 1.8 nM; against RET (V804M), 8.1 nM; against RET (L790F) it was 0.4 nM; against RET (E762Q), 1 nM; against RET (A883F) it was 1.2 nM; on RET (Y791F) it was 0.4 nM. Half-maximal inhibition on RET (R749T) (IC50) required 0.8 nM.
